Measurements: patent publication US20240139166A1, “OPHTHALMIC COMPOSITIONS FOR PRESBYOPIA” (Sydnexis, Inc., priority 2021, published 2024)

Assay: Stability of pilocarpine in deuterated water (pilocarpic acid formation)
Format: physicochemical
Experimental: The stability of pilocarpine was tested over a range of concentrations. Pilocarpic acid formation, a major degradant of pilocarpine, was measured. […] The stability of pilocarpine, as measured by the percent of pilocarpic acid formation, was measured at different pH/pD values, as depicted in FIG. 2.

Structure (SMILES): CC[C@@H]1C(=O)OC[C@@H]1Cc1cncn1C [pilocarpine]
- Stability (pilocarpic acid formation) in deuterated water versus non-deuterated water (FIG. 1): improved stability in deuterated water as compared to non-deuterated water
- Stability (pilocarpic acid formation) over a range of pilocarpine concentrations (FIG. 1): improved stability at higher concentrations of pilocarpine
- Stabilizing factor of deuterated water versus pilocarpine concentration (FIG. 1): stabilizing factor increases as pilocarpine concentration decreases
- Rate of pilocarpic acid formation at different pH/pD values (FIG. 2): linear log/log relationship was identified between the log(rate of pilocarpic acid formation) and pH
